Test results from publication PMC12575627 (Nature Communications, 2025).

Legend:
Test in all cases: […]CABP radioligand binding
Type in all cases: biochemical
Settings in all cases: labelled compound, E. coli soluble protein
RrRubisco (RrL2) = target: T1, RrRubisco (RrL2) (Rhodospirillum rubrum, UniProt P04718)
T1 sequence (P04718 1-466): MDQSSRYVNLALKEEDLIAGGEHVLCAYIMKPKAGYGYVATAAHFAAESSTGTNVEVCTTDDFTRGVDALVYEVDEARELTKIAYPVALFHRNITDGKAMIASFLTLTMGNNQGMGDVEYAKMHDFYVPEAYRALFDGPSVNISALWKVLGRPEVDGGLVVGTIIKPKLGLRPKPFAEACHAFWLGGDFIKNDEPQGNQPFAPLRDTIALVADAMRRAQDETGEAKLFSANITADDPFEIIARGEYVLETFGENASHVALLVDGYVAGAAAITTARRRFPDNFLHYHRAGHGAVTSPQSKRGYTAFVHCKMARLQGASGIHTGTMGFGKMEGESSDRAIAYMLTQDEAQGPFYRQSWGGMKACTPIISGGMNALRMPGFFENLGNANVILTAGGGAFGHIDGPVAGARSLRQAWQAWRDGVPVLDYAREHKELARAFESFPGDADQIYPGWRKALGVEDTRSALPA

RrL^c2 = target: T2, RrL^c2 (Rhodospirillum rubrum, UniProt P04718)
T2 sequence (P04718 1-466): T1 sequence (P04718 1-466)

Rr^cL2 = target: T3, Rr^cL2 (Rhodospirillum rubrum, UniProt P04718)
T3 sequence (P04718 1-466): T1 sequence (P04718 1-466)

## O=C(O)[C@@](O)(COP(=O)(O)O)[C@H](O)[C@H](O)COP(=O)(O)O [14CABP]
RrRubisco (RrL2)
  14CABP radioligand binding (active-site quantification): CLP tagging to RbcL was found to have no measurable impact on RrRubisco formation
RrL^c2
  14CABP radioligand binding (active-site quantification): CLP tagging to RbcL was found to have no measurable impact on RrRubisco formation
Rr^cL2
  14CABP radioligand binding (active-site quantification): CLP tagging to RbcL was found to have no measurable impact on RrRubisco formation
